ChEMBL document CHEMBL3885861, “Open TG-GATES”

Species: Rattus norvegicus
Assay: Open TG-GATES - Regimen: Single
Assay type: toxicity, organism-based, Sprague-Dawley
Set-up: regimen Single, gender Male, age 6 weeks
Settings: in vivo, po, route gavage; for Fbg / Hb / Ht / Lym / MCH / MCHC / MCV / Mono / Neu / PT / Plat / RBC / Ret / WBC / APTT / Bas / Eos: tissue Blood; for KIDNEY_L / KIDNEY_R / KIDNEY_TOTAL: tissue Kidney; for LIVER: tissue Liver; for A/G / ALP / ALT / AST / BUN / CRE / Ca / Cl / DBIL / GLC / IP / K / LDH / Na / PL / RALB / TBIL / TC / TG / TP / gamma-GTP: tissue Plasma
[1] = 300 mg/kg, 6 h, dose level Middle
[2] = 300 mg/kg, 9 h, dose level Middle
[3] = 300 mg/kg, 24 h, dose level Middle
[4] = 600 mg/kg, 3 h, dose level High
[5] = 600 mg/kg, 6 h, dose level High
[6] = 600 mg/kg, 9 h, dose level High
[7] = 600 mg/kg, 24 h, dose level High

## O=C1CN(/N=C/c2ccc([N+](=O)[O-])o2)C(=O)N1 [NITROFURANTOIN]
[1]
  Fbg: 235.8 mg/dL
  Hb: 13.2 g/dL
  Ht: 40%
  Lym: 70.6%
  MCH: 21.1 pg
  MCHC: 33%
  MCV: 63.9 fL
  Mono: 8%
  Neu: 20%
  PT: 11.7 s
  Plat: 127.7 x10_4/uL
  RBC: 625.2 x10_4/ul
  Ret: 7.7%
  WBC: 80.2 x10_2/uL
  KIDNEY_L: 0.9 g
  KIDNEY_R: 0.9 g
  KIDNEY_TOTAL: 1.9 g
  LIVER: 8.7 g
  A/G: 2.4
  ALP: 1363.8 IU/L
  ALT: 30.6 IU/L
  AST: 63.4 IU/L
  BUN: 10 mg/dL
  CRE: 0.5 mg/dL
  Ca: 11.5 mg/dL
  Cl: 103.8 meq/L
  DBIL: 0.004 mg/dL
  GLC: 192.4 mg/dL
  IP: 9.1 mg/dL
  K: 4.2 meq/L
  LDH: 69 IU/L
  Na: 137.2 meq/L
  PL: 158.2 mg/dL
  RALB: 4.1 g/dL
  TBIL: 0.036 mg/dL
  TC: 113 mg/dL
  TG: 36.2 mg/dL
  TP: 5.8 g/dL
  gamma-GTP: 0.2 IU/L
[2]
  TERMINAL_BW: 204.4 g
  APTT: 17 s
  Bas: 0%
  Eos: 1.2%
  Fbg: 234.8 mg/dL
  Hb: 13.3 g/dL
  Ht: 40.4%
  Lym: 70.6%
  MCH: 21.5 pg
  MCHC: 33%
  MCV: 64.9 fL
  Mono: 7.8%
  Neu: 20.6%
  PT: 11.7 s
  Plat: 116.3 x10_4/uL
  RBC: 622.6 x10_4/ul
  Ret: 6.4%
  WBC: 62.7 x10_2/uL
  KIDNEY_L: 0.9 g
  KIDNEY_R: 1 g
  KIDNEY_TOTAL: 1.9 g
  LIVER: 8.9 g
  A/G: 2.2
  ALP: 1126.4 IU/L
  ALT: 29.6 IU/L
  AST: 59.4 IU/L
  BUN: 12.4 mg/dL
  CRE: 0.4 mg/dL
  Ca: 11.4 mg/dL
  Cl: 106 meq/L
  DBIL: 0.008 mg/dL
  GLC: 210 mg/dL
  IP: 8.5 mg/dL
  K: 4.4 meq/L
  LDH: 61.8 IU/L
  Na: 138.6 meq/L
  PL: 143.8 mg/dL
  RALB: 4 g/dL
  TBIL: 0.038 mg/dL
  TC: 88.6 mg/dL
  TG: 62.8 mg/dL
  TP: 5.9 g/dL
  gamma-GTP: 1 IU/L
[3]
  TERMINAL_BW: 197.5 g
  APTT: 16 s
  Bas: 0%
  Eos: 1.6%
  Fbg: 229.2 mg/dL
  Hb: 13.8 g/dL
  Ht: 42.2%
  Lym: 82%
  MCH: 21.3 pg
  MCHC: 32.6%
  MCV: 65.3 fL
  Mono: 4.2%
  Neu: 12.2%
  PT: 11.6 s
  Plat: 128 x10_4/uL
  RBC: 647 x10_4/ul
  Ret: 6.2%
  WBC: 69.5 x10_2/uL
  KIDNEY_L: 1 g
  KIDNEY_R: 1 g
  KIDNEY_TOTAL: 2.1 g
  LIVER: 8.1 g
  A/G: 2.2
  ALP: 1379.2 IU/L
  ALT: 32.6 IU/L
  AST: 62.6 IU/L
  BUN: 15.4 mg/dL
  CRE: 0.4 mg/dL
  Ca: 11.1 mg/dL
  Cl: 107.8 meq/L
  DBIL: 0.01 mg/dL
  GLC: 194.2 mg/dL
  IP: 9.1 mg/dL
  K: 4.6 meq/L
  LDH: 73.4 IU/L
  Na: 140.8 meq/L
  PL: 150.8 mg/dL
  RALB: 3.8 g/dL
  TBIL: 0.028 mg/dL
  TC: 85.8 mg/dL
  TG: 118.6 mg/dL
  TP: 5.6 g/dL
  gamma-GTP: 0 IU/L
[4]
  TERMINAL_BW: 206.4 g
  APTT: 16.4 s
  Bas: 0%
  Eos: 1%
  Fbg: 233.2 mg/dL
  Hb: 13.2 g/dL
  Ht: 40.3%
  Lym: 71%
  MCH: 21.1 pg
  MCHC: 32.8%
  MCV: 64.4 fL
  Mono: 6.4%
  Neu: 22.4%
  PT: 12.1 s
  Plat: 121.3 x10_4/uL
  RBC: 625.6 x10_4/ul
  Ret: 7.8%
  WBC: 72.9 x10_2/uL
  KIDNEY_L: 0.9 g
  KIDNEY_R: 1 g
  KIDNEY_TOTAL: 1.9 g
  LIVER: 8.8 g
  A/G: 2.2
  ALP: 1226.6 IU/L
  ALT: 36 IU/L
  AST: 64.4 IU/L
  BUN: 12 mg/dL
  CRE: 0.5 mg/dL
  Ca: 11.6 mg/dL
  Cl: 104 meq/L
  DBIL: 0 mg/dL
  GLC: 198.4 mg/dL
  IP: 10.1 mg/dL
  K: 4 meq/L
  LDH: 91.2 IU/L
  Na: 139.6 meq/L
  PL: 146 mg/dL
  RALB: 4.1 g/dL
  TBIL: 0.034 mg/dL
  TC: 90.8 mg/dL
  TG: 54.8 mg/dL
  TP: 5.9 g/dL
  gamma-GTP: 1 IU/L
[5]
  TERMINAL_BW: 204.9 g
  APTT: 16 s
  Bas: 0%
  Eos: 1%
  Fbg: 228.8 mg/dL
  Hb: 13.7 g/dL
  Ht: 41.9%
  Lym: 74.8%
  MCH: 20.9 pg
  MCHC: 32.8%
  MCV: 63.9 fL
  Mono: 5.8%
  Neu: 18.6%
  PT: 11.8 s
  Plat: 115.3 x10_4/uL
  RBC: 656.6 x10_4/ul
  Ret: 7.9%
  WBC: 63.6 x10_2/uL
  KIDNEY_L: 0.9 g
  KIDNEY_R: 0.9 g
  KIDNEY_TOTAL: 1.9 g
  LIVER: 8.7 g
  A/G: 2.4
  ALP: 1281.4 IU/L
  ALT: 34.6 IU/L
  AST: 64.4 IU/L
  BUN: 12.6 mg/dL
  CRE: 0.5 mg/dL
  Ca: 11.5 mg/dL
  Cl: 104.2 meq/L
  DBIL: 0.008 mg/dL
  GLC: 193 mg/dL
  IP: 9 mg/dL
  K: 4.3 meq/L
  LDH: 74.4 IU/L
  Na: 137.8 meq/L
  PL: 144.2 mg/dL
  RALB: 4.1 g/dL
  TBIL: 0.04 mg/dL
  TC: 99.6 mg/dL
  TG: 33 mg/dL
  TP: 5.8 g/dL
  gamma-GTP: 0 IU/L
[6]
  TERMINAL_BW: 205.1 g
  APTT: 16.6 s
  Bas: 0%
  Eos: 1%
  Fbg: 229 mg/dL
  Hb: 13.5 g/dL
  Ht: 41.1%
  Lym: 71.4%
  MCH: 21.2 pg
  MCHC: 32.9%
  MCV: 64.6 fL
  Mono: 8%
  Neu: 19.8%
  PT: 11.7 s
  Plat: 127.2 x10_4/uL
  RBC: 636.6 x10_4/ul
  Ret: 7.2%
  WBC: 77 x10_2/uL
  KIDNEY_L: 1 g
  KIDNEY_R: 0.9 g
  KIDNEY_TOTAL: 1.9 g
  LIVER: 8.9 g
  A/G: 2.3
  ALP: 1100.8 IU/L
  ALT: 28.6 IU/L
  AST: 59.4 IU/L
  BUN: 12.6 mg/dL
  CRE: 0.4 mg/dL
  Ca: 11.3 mg/dL
  Cl: 104.2 meq/L
  DBIL: 0.01 mg/dL
  GLC: 194 mg/dL
  IP: 9.2 mg/dL
  K: 4.4 meq/L
  LDH: 82.6 IU/L
  Na: 137.4 meq/L
  PL: 160.4 mg/dL
  RALB: 4.1 g/dL
  TBIL: 0.042 mg/dL
  TC: 104.4 mg/dL
  TG: 46 mg/dL
  TP: 5.9 g/dL
  gamma-GTP: 1 IU/L
[7]
  TERMINAL_BW: 201.7 g
  APTT: 16.3 s
  Bas: 0%
  Eos: 1.6%
  Fbg: 238 mg/dL
  Hb: 13.7 g/dL
  Ht: 41.6%
  Lym: 78.8%
  MCH: 21.2 pg
  MCHC: 33%
  MCV: 64.4 fL
  Mono: 8.2%
  Neu: 11.8%
  PT: 11.8 s
  Plat: 131.1 x10_4/uL
  RBC: 647 x10_4/ul
  Ret: 6.5%
  WBC: 54.6 x10_2/uL
  KIDNEY_L: 1 g
  KIDNEY_R: 1 g
  KIDNEY_TOTAL: 1.9 g
  LIVER: 8.3 g
  A/G: 2.2
  ALP: 1073.2 IU/L
  ALT: 21.4 IU/L
  AST: 54.8 IU/L
  BUN: 11.4 mg/dL
  CRE: 0.5 mg/dL
  Ca: 11.4 mg/dL
  Cl: 108 meq/L
  DBIL: 0.01 mg/dL
  GLC: 170.2 mg/dL
  IP: 8.9 mg/dL
  K: 4.1 meq/L
  LDH: 91.2 IU/L
  Na: 140.2 meq/L
  PL: 138.4 mg/dL
  RALB: 4 g/dL
  TBIL: 0.04 mg/dL
  TC: 95.6 mg/dL
  TG: 42.6 mg/dL
  TP: 5.9 g/dL
  gamma-GTP: 0 IU/L
